In ChEMBL document CHEMBL1133497, “Design and synthesis of anticonvulsive agents as gamma-vinyl GABA-based potential dual acting prodrugs and their biological activities” (2000):

Experiments:
Format in all cases: functional
Mus musculus [1] = species: Mus musculus; experiment: Effective dose required for anticonvulsive activity in bicuculline (BIC) test
Mus musculus [2] = species: Mus musculus; experiment: Effective dose required for anticonvulsive activity in maximal electroshock seizure (MES) test
Mus musculus [3] = species: Mus musculus; experiment: Effective dose required for anticonvulsive activity in pentylenetetrazole (PTZ) test
Mus musculus [4] = species: Mus musculus; experiment: Anticonvulsive activity in picrotoxin (PCR) induced seizure test
Mus musculus [5] = experiment: Protection from picrotoxin-induced (0.27 mmol/kg) convulsion over 3 hr at 100 mg/kg in 4 mice
Mus musculus [6] = experiment: Protection from picrotoxin-induced (0.27 mmol/kg) convulsion over 9 hr at 100 mg/kg in 4 mice
Mus musculus [7] = experiment: Protection from picrotoxin-induced (0.27 mmol/kg) convulsion over 16 hr at 100 mg/kg in 4 mice
Mus musculus [8] = experiment: Protection from picrotoxin-induced (0.27 mmol/kg) convulsion over 6 hr at 100 mg/kg in 4 mice
Mus musculus [9] = experiment: Effective dose required for anticonvulsive activity in pentylenetetrazole (PTZ) test at >0.1 mmol/kg
Mus musculus [10] = species: Mus musculus; experiment: Anticonvulsive activity in picrotoxin (PCR) induced seizure test (ineffective)
Mus musculus [11] = species: Mus musculus; experiment: Effective dose required for anticonvulsive activity in maximal electroshock seizure (MES) test; Not effective
Mus musculus [12] = species: Mus musculus; experiment: Effective dose required for anticonvulsive activity in bicuculline (BIC) test; Not effective
Mus musculus [13] = species: Mus musculus; experiment: Effective dose required for anticonvulsive activity in pentylenetetrazole (PTZ) test; Not effective

## C=CC(CCC(=O)OC)NC(=O)C1CCCNC1 (stereo not drawn)
Mus musculus [1]
  ED50: 310 µmol/kg
Mus musculus [2]
  ED50: > 540 µmol/kg
Mus musculus [3]
  ED50: 410 µmol/kg
Mus musculus [4]
  ED50: 260 µmol/kg

## C=CC(N)CCC(=O)N1CCC(C(=O)OC)CC1 (stereo not drawn)
Mus musculus [1]
  ED50: 150 µmol/kg
Mus musculus [5]
  No. of mice protected: 2
Mus musculus [2]
  ED50: > 540 µmol/kg
Mus musculus [3]
  ED50: 320 µmol/kg
Mus musculus [6]
  No. of mice protected: 0
Mus musculus [4]
  ED50: 260 µmol/kg
Mus musculus [7]
  No. of mice protected: 0
Mus musculus [8]
  No. of mice protected: 2

## C=CC(N)CCC(=O)N1CCCC(C(=O)OC)C1 (stereo not drawn)
Mus musculus [1]
  ED50: 140 µmol/kg
Mus musculus [5]
  No. of mice protected: 2
Mus musculus [2]
  ED50: > 540 µmol/kg
Mus musculus [3]
  ED50: 150 µmol/kg
Mus musculus [6]
  No. of mice protected: 0
Mus musculus [4]
  ED50: 100 µmol/kg
Mus musculus [7]
  No. of mice protected: 0
Mus musculus [8]
  No. of mice protected: 0

## C=CC(CCC(=O)OC)NC(=O)C1CCNCC1 (stereo not drawn)
Mus musculus [1]
  ED50: 460 µmol/kg
Mus musculus [2]
  ED50: > 540 µmol/kg
Mus musculus [3]
  ED50: > 540 µmol/kg
Mus musculus [4]
  ED50: 390 µmol/kg

## C=CC(N)CCC(=O)N1CCCC1=O (stereo not drawn)
Mus musculus [1]
  ED50: 200 µmol/kg
Mus musculus [2]
  ED50: > 540 µmol/kg
Mus musculus [3]
  ED50: > 540 µmol/kg
Mus musculus [4]
  ED50: 260 µmol/kg

## O=C1CCCN1 [2-PYRROLIDONE]
Mus musculus [9]
  ED50: 540 µmol/kg
Mus musculus [10]
  ED50: > 1000 µmol/kg
Mus musculus [11]
  ED50: > 1000 µmol/kg
Mus musculus [12]
  ED50: > 1000 µmol/kg

## O=C(O)C1CCNCC1 [ISONIPECOTIC ACID]
Mus musculus [12]
  ED50: > 1000 µmol/kg

## O=C(O)C1CCCNC1 (stereo not drawn) [NIPECOTIC ACID]
Mus musculus [11]
  ED50: > 1000 µmol/kg
Mus musculus [12]
  ED50: > 1000 µmol/kg

## C=CC(N)CCC(=O)O (stereo not drawn) [VIGABATRIN]
Mus musculus [1]
  ED50: 220 µmol/kg
Mus musculus [5]
  No. of mice protected: 4
Mus musculus [11]
  ED50: > 1000 µmol/kg
Mus musculus [6]
  No. of mice protected: 3
Mus musculus [13]
  ED50: > 1000 µmol/kg
Mus musculus [4]
  ED50: 210 µmol/kg
Mus musculus [7]
  No. of mice protected: 0
Mus musculus [8]
  No. of mice protected: 4
